According to USRE48461E1, “Modulation of androgen receptor expression” (Ionis Pharmaceuticals, Inc., priority 2012, dated 2021):

Experiments:
Assay type in all cases: cell-based, human
AR mRNA = assay: AR RNA expression in C4-2 cells (complete, CSS+DHT medium); details: 48 hrs; for Percent expression of AR: C4-2 cells, CSS + DHT medium
Experimental: Cells were plated at 1,000 cells per well. […] After an incubation period of 48 hrs, RNA levels of AR, PSA and TMPRSS2 were measured.
Cells were plated at 2,000 cells per well and cultured in CSS media with 1 nM DHT. […] After an incubation period of 48 hrs, RNA levels of AR, PSA and TMPRSS2 were measured.

PSA mRNA = assay: PSA expression in VCaP cells; details: RNAiMax, 48 hrs
Experimental: (§1) Cells were plated at 10,000 cells per well. […] After an incubation period of 48 hrs, RNA levels of full length AR, the V7 variant, PSA and TMPRSS2 were measured.
(§2) After an incubation period of 48 hrs, RNA levels of full length AR, the V7 variant, PSA and TMPRSS2 were measured. The data is presented in Tables 108 expressed as percent expression of gene levels compared to the untreated control.
(§3) Cells were plated at 15,000 cells per well and cultured in CSS media for 16 hours. […] After 4 hrs, 1 nM DHT was added. […] After an incubation period of 48 hrs, RNA levels of AR, PSA and TMPRSS2 were measured.

AR V7 variant mRNA = assay: AR V7 variant RNA in VCaP cells; details: RNAiMax, 48 hrs
Experimental: Cells were plated at 10,000 cells per well. […] ISIS 549148 was included as a negative control. After an incubation period of 48 hrs, RNA levels of full length AR, the V7 variant, PSA and TMPRSS2 were measured.
A separate set of cells was treated with MDV-3100 at 0.04 μM, 0.2 μM, 1.0 μM, or 5.0 μM. After an incubation period of 48 hrs, RNA levels of full length AR, the V7 variant, PSA and TMPRSS2 were measured. The data is presented in Tables 108 expressed as percent expression of gene levels compared to the untreated control.
Cells were plated at 15,000 cells per well and cultured in CSS media for 16 hours. […] ISIS 549148 was included as a negative control. After 4 hrs, 1 nM DHT was added. […] After an incubation period of 48 hrs, RNA levels of AR, PSA and TMPRSS2 were measured. […]

[1] = test system: prostate-specific antigen (PSA) mRNA; assay: Time-course PSA expression in C4-2B cells
Experimental: C4-2B cells were plated at 1,000 cells per well in complete medium. […] ISIS 549148 was included as a negative control. […] After a treatment period of 8 hours, 24 hours, and 48 hours, AR expression was measured with primer probe set hAR-LTS00943. Results are presented in Tables 70-72 as percent expression of AR, relative to non-treated cells.
Expression analysis of prostate-specific antigen (PSA) and TMPRSS2 were also analyzed. Results are presented in Tables 73-75 as percent inhibition of PSA expression and Tables 76-78 as percent inhibition of TMPRSS2 expression, relative to non-treated cells.

LNCaP cells = assay: LNCaP cell proliferation (complete or CSS+DHT medium); details: 5 days; for Proliferation (% untreated control) in LNCaP cells cultured in CSS + DHT medium: CSS + 1 nM DHT medium
Experimental: After a treatment period of 5 days in complete medium or CSS+1 nM DHT medium, the proliferative capacity of the cancer cells was measured with using CellTiter 96® AQueous One Solution or CellTiter-Glo® solution Cell Proliferation kit (Promega), following the manufacturer's instructions. […] Treatment with ISIS oligonucleotides in CSS+DHT medium reduced the proliferative capacity to a greater extent than treatment with MVD-3100. The proliferative capacity of cells cultured in CSS medium without DHT is 17% of untreated control levels.

TMPRSS2 mRNA [2] = assay: TMPRSS2 expression in VCaP cells; details: RNAiMax, 48 hrs
Experimental: as §1, §2, §3

TMPRSS2 mRNA [3] = assay: TMPRSS2 mRNA levels in LMR20 cells; details: with or without DHT/R1881
Experimental: LMR20 cells were plated at 1,500 cells per well in phenol red-free medium with CSS.

TGATTTAATGGTTGCA [ISIS 569236] (cEt/MOE gapmer chemistry, further chemistry not given here) [targets intron 1]
Percent expression of AR (AR mRNA; 0.04 μM): 89% | Percent expression of AR (AR mRNA; 0.2 μM): 82% | Percent expression of AR (AR mRNA; 1 μM): 52% | Percent expression of AR (AR mRNA; 5.0 μM): 23% | Percent expression of AR in C4-2 cells cultured in complete medium (AR mRNA; 0.04 μM): 72% | Percent expression of AR in C4-2 cells cultured in complete medium (AR mRNA; 0.2 μM): 27% | Percent expression of AR in C4-2 cells cultured in complete medium (AR mRNA; 1 μM): 11% | Percent expression of AR in C4-2 cells cultured in complete medium (AR mRNA; 5.0 μM): 9% | Percent inhibition of PSA expression (PSA mRNA; CSS + DHT medium, 1.34 nM): 8% | Percent inhibition of PSA expression (PSA mRNA; CSS + DHT medium, 4.0 nM): 25% | Percent inhibition of PSA expression (PSA mRNA; CSS + DHT medium, 13.4 nM): 62% | Percent inhibition of PSA expression (PSA mRNA; CSS + DHT medium, 40 nM): 74% | Percent inhibition of PSA expression (PSA mRNA; complete medium, 1.34 nM): 7% | Percent inhibition of PSA expression (PSA mRNA; complete medium, 4.0 nM): 19% | Percent inhibition of PSA expression (PSA mRNA; complete medium, 13.4 nM): 40% | Percent inhibition of PSA expression (PSA mRNA; complete medium, 40 nM): 52% | Percent inhibition of AR V7 variant (AR V7 variant mRNA; CSS + DHT medium, 1.34 nM): 37% | Percent inhibition of AR V7 variant (AR V7 variant mRNA; CSS + DHT medium, 4.0 nM): 33% | Percent inhibition of AR V7 variant (AR V7 variant mRNA; CSS + DHT medium, 13.4 nM): 48% | Percent inhibition of AR V7 variant (AR V7 variant mRNA; CSS + DHT medium, 40 nM): 39% | Percent inhibition of AR V7 variant (AR V7 variant mRNA; complete medium, 1.34 nM): 0% | Percent inhibition of AR V7 variant (AR V7 variant mRNA; complete medium, 4.0 nM): 40% | Percent inhibition of AR V7 variant (AR V7 variant mRNA; complete medium, 13.4 nM): 53% | Percent inhibition of AR V7 variant (AR V7 variant mRNA; complete medium, 40 nM): 80% | Percent inhibition of PSA expression compared to the control group in 8 hours ([1]; 0.04 μM): 18% | Percent inhibition of PSA expression compared to the control group in 24 hours ([1]; 0.04 μM): 10% | Percent inhibition of PSA expression compared to the control group in 48 hours ([1]; 0.04 μM): 4% | Percent inhibition of PSA expression compared to the control group in 8 hours ([1]; 0.2 μM): 3% | Percent inhibition of PSA expression compared to the control group in 24 hours ([1]; 0.2 μM): 34% | Percent inhibition of PSA expression compared to the control group in 48 hours ([1]; 0.2 μM): 45% | Percent inhibition of PSA expression compared to the control group in 8 hours ([1]; 1 μM): 0% | Percent inhibition of PSA expression compared to the control group in 24 hours ([1]; 1 μM): 44% | Percent inhibition of PSA expression compared to the control group in 48 hours ([1]; 1 μM): 68% | Percent inhibition of PSA expression compared to the control group in 8 hours ([1]; 5.0 μM): 0% | Percent inhibition of PSA expression compared to the control group in 24 hours ([1]; 5.0 μM): 54% | Percent inhibition of PSA expression compared to the control group in 48 hours ([1]; 5.0 μM): 76% | PSA expression ([1]; time course): reduced PSA and TMPRSS2 expression in the cells relative to the control set at the 24 hr and 48 hr time points | Proliferation (% untreated control) in LNCaP cells cultured in CSS + DHT medium (LNCaP cells; 0.04 μM): 95 % untreated control | Proliferation (% untreated control) in LNCaP cells cultured in CSS + DHT medium (LNCaP cells; 0.2 μM): 99 % untreated control | Proliferation (% untreated control) in LNCaP cells cultured in CSS + DHT medium (LNCaP cells; 1 μM): 54 % untreated control | Proliferation (% untreated control) in LNCaP cells cultured in CSS + DHT medium (LNCaP cells; 5.0 μM): 17 % untreated control | proliferation of LNCaP cells (LNCaP cells; complete medium or CSS+1 nM DHT): reduced proliferation of the cells in a dose dependent compared to the control | Proliferation (% untreated control) in LNCaP cells cultured in complete medium (LNCaP cells; 0.04 μM): 100 % untreated control | Proliferation (% untreated control) in LNCaP cells cultured in complete medium (LNCaP cells; 0.2 μM): 85 % untreated control | Proliferation (% untreated control) in LNCaP cells cultured in complete medium (LNCaP cells; 1 μM): 68 % untreated control | Proliferation (% untreated control) in LNCaP cells cultured in complete medium (LNCaP cells; 5.0 μM): 54 % untreated control | Percent inhibition of TMPRSS2 expression (TMPRSS2 mRNA [2]; CSS + DHT medium, 1.34 nM): 6% | Percent inhibition of TMPRSS2 expression (TMPRSS2 mRNA [2]; CSS + DHT medium, 4.0 nM): 19% | Percent inhibition of TMPRSS2 expression (TMPRSS2 mRNA [2]; CSS + DHT medium, 13.4 nM): 40% | Percent inhibition of TMPRSS2 expression (TMPRSS2 mRNA [2]; CSS + DHT medium, 40 nM): 54% | Percent inhibition of TMPRSS2 expression (TMPRSS2 mRNA [2]; complete medium, 1.34 nM): 0% | Percent inhibition of TMPRSS2 expression (TMPRSS2 mRNA [2]; complete medium, 4.0 nM): 0% | Percent inhibition of TMPRSS2 expression (TMPRSS2 mRNA [2]; complete medium, 13.4 nM): 0% | Percent inhibition of TMPRSS2 expression (TMPRSS2 mRNA [2]; complete medium, 40 nM): 36% | TMPRSS2 mRNA levels in LMR20 cells (TMPRSS2 mRNA [3]): reduced PSA levels and TMPRSS2 more extensively than the LNA gapmer ISIS 554221 or MDV3100
